Like-named read-outs stand apart in the source and are kept apart here.
How the values were obtained:
[1] = target: CB1 (Rattus norvegicus, UniProt P20272); assay: CB1 receptor binding affinity (Ki)
Method: Some disclosed compounds were tested for CB1 and CB2 receptor binding affinity (Tables 1, 2, 3, 4, 5, 6). As used herein “binding affinity” is represented by the Ki value. The Ki value is the affinity constant and describes the affinity of the compound for the receptor. […] A detailed description of the methods used to test “binding affinity” of compounds is given in Makriyannis, et al., US 2007, 0135388 and in Papahatjis, et al. J. Med. Chem. (2007) 4048, the content of each of which is hereby incorporated by reference.

[2] = target: CB2 receptor (UniProt P47936); assay: CB2 receptor binding affinity (Ki); settings: read-out: CB2 receptor Ki
Method: Some disclosed compounds were tested for CB1 and CB2 receptor binding affinity (Tables 1, 2, 3, 4, 5, 6). As used herein “binding affinity” is represented by the Ki value. The Ki value is the affinity constant and describes the affinity of the compound for the receptor. The lower the Ki value, the higher the affinity of the compound for the receptor. A detailed description of the methods used to test “binding affinity” of compounds is given in Makriyannis, et al., US 2007, 0135388 and in Papahatjis, et al. J. Med. Chem. (2007) 4048, the content of each of which is hereby incorporated by reference.

Sequence of CB1 (P20272 whole entry): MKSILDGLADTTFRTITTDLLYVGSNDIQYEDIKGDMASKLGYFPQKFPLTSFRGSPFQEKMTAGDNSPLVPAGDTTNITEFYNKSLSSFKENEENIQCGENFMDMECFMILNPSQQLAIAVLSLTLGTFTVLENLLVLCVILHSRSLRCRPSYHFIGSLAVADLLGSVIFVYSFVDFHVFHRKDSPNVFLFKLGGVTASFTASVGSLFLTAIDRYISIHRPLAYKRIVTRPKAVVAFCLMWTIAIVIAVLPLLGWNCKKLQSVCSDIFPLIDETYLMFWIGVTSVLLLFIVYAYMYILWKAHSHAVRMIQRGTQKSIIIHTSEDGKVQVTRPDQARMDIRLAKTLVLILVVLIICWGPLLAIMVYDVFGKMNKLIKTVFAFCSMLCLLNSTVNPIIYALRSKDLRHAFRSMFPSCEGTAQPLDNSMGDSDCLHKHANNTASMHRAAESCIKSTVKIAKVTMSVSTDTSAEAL

Compound	Ki ([1]; read-out: CB1 receptor Ki) [nM]	Ki [2] [nM]	Ki [1] [nM]
2-[(1S,6S)-3-(Hydroxymethyl)-6-(1-methylethenyl)-2-cyclohexen-1-yl]-5-[1-(1,2-cis-hexen-1-yl)-cyclopent-1-yl]resorcinol [Compound 4.5]	29	2.7	–
C=C(C)[C@H]1CCC(C)=C[C@@H]1c1c(O)cc(CCCCC)cc1O [(+)-CBD, Cannabidiol, reference compound]	–	> 200	–
C=C(C)[C@@H]1CCC(C)=C[C@H]1c1c(O)cc(CCCCC)cc1O [(−)-CBD, Cannabidiol, reference compound]	–	> 200	–
C=C(C)[C@H]1CCC(COC(C)=O)=C[C@@H]1c1c(O)cc(C(C)(C)CCCCCC)cc1O [Compound 3.2, 2-[(1S,6S)-3-(Acetoxymethyl)-6-(1-methylethenyl)-2-cyclohexen-1-yl]-5-(1,1-dimethylheptyl)resorcinol]	–	62	69
C=C(C)[C@H]1CCC(COC(C)=O)=C[C@@H]1c1c(O)cc(C2(CCCCCC)CC2)cc1O [Compound 3.3, 2-[(1S,6S)-3-(Acetoxymethyl)-6-(1-methylethenyl)-2-cyclohexen-1-yl]-5-(1-hexyl-cyclopropyl)resorcinol]	–	105	88
C=C(C)[C@H]1CCC(COC(C)=O)=C[C@@H]1c1c(O)cc(C2(CCCCCC)CCCC2)cc1O [Compound 3.4, 2-[(1S,6S)-3-(Acetoxymethyl)-6-(1-methylethenyl)-2-cyclohexen-1-yl]-5-(1-hexyl-1-cyclopentyl)resorcinol]	–	65	277
C=C(C)[C@H]1CCC(COC(C)=O)=C[C@@H]1c1c(O)cc(C2(/C=C\CCCC)CCCC2)cc1O [Compound 3.5, 2-[(1S,6S)-3-(Acetoxymethyl)-6-(1-methylethenyl)-2-cyclohexen-1-yl]-5-[1-(1,2-cis-hexen-1-yl)-cyclopent-1-yl]resorcinol]	–	12	71
C=C(C)[C@H]1CCC(COC(C)=O)=C[C@@H]1c1c(O)cc(C2(CCCCCC)SCCS2)cc1O [Compound 3.6, 2-[(1S,6S)-3-(Acetoxymethyl)-6-(1-methylethenyl)-2-cyclohexen-1-yl]-5-(2-hexyl-1,3-dithiolane-2-yl)resorcinol]	326	97	–
C=C(C)[C@H]1CCC(COC(C)=O)=C[C@@H]1c1c(O)cc(C2(CCCCCBr)CCCC2)cc1O [Compound 3.7, 2-[(1S,6S)-3-(Acetoxymethyl)-6-(1-methylethenyl)-2-cyclohexen-1-yl]-5-[(5-bromopentyl)cyclopentyl)resorcinol]	–	25	51
C=C(C)[C@H]1CCC(COC(C)=O)=C[C@@H]1c1c(O)cc(C2(CCCCCBr)CCC2)cc1O [Compound 3.8, 2-[(1S,6S)-3-(Acetoxymethyl)-6-(1-methylethenyl)-2-cyclohexen-1-yl]-5-[(5-bromopentyl)cyclobutyl)resorcinol]	–	35	50
C=C(C)[C@H]1CCC(COC(C)=O)=C[C@@H]1c1c(O)cc(C23CC4CC(CC(C4)C2)C3)cc1O [Compound 3.9, 2-[(1S,6S)-3-(Acetoxymethyl)-6-(1-methylethenyl)-2-cyclohexen-1-yl]-5-(1-adamantyl)resorcinol]	–	135	185
C=C(C)[C@H]1CCC(COC(C)=O)=C[C@@H]1c1c(O)cc(C(C)(C)CCCBr)cc1O [Compound 3.10, 2-[(1S,6S)-3-(Acetoxymethyl)-6-(1-methylethenyl)-2-cyclohexen-1-yl]-5-(5-bromo-2-methypentan-2-yl)resorcinol]	–	14	620
C=C(C)[C@H]1CCC(COC(C)=O)=C[C@@H]1c1c(O)cc(C(C)(C)CCCCBr)cc1O [Compound 3.11, 2-[(1S,6S)-3-(Acetoxymethyl)-6-(1-methylethenyl)-2-cyclohexen-1-yl]-5-(6-bromo-2-methylhexan-2-yl)resorcinol]	–	37	191
C=C(C)[C@H]1CCC(COC(C)=O)=C[C@@H]1c1c(O)cc(C(C)(C)CCCCCBr)cc1O [Compound 3.12, 2-[(1S,6S)-3-(Acetoxymethyl)-6-(1-methylethenyl)-2-cyclohexen-1-yl]-5-(7-bromo-2-methylheptan-2-yl)resorcinol]	–	27	29
C=C(C)[C@H]1CCC(COC(C)=O)=C[C@@H]1c1c(O)cc(C2(/C=C\CCCC)CCOCC2)cc1O [Compound 3.14, 2-[(1S,6S)-3-(Acetoxymethyl)-6-(1-methylethenyl)-2-cyclohexen-1-yl]-5-[1-(1,2-cis-hexen-1-yl)-tetrahydro-2H-pyran-4-yl]resorcinol]	–	38	376
C=C(C)[C@H]1CCC(CO)=C[C@@H]1c1c(O)cc(C2(CCCCCBr)CCCC2)cc1O [Compound 4.7, 2-[(1S,6S)-3-(Hydroxymethyl)-6-(1-methylethenyl)-2-cyclohexen-1-yl]-5-[(5-bromopentyl)cyclopentyl)resorcinol]	–	5	16
C=C(C)[C@H]1CCC(CO)=C[C@@H]1c1c(O)cc(C2(CCCCCBr)CCC2)cc1O [Compound 4.8, 2-[(1S,6S)-3-(Hydroxymethyl)-6-(1-methylethenyl)-2-cyclohexen-1-yl]-5-[(5-bromopentyl)cyclobutyl)resorcinol]	–	11	14
C=C(C)[C@H]1CCC(CO)=C[C@@H]1c1c(O)cc(C23CC4CC(CC(C4)C2)C3)cc1O [Compound 4.9, 2-[(1S,6S)-3-(Hydroxymethyl)-6-(1-methylethenyl)-2-cyclohexen-1-yl]-5-(1-adamantyl)resorcinol]	–	49	449
C=C(C)[C@@H]1CCC(COC(C)=O)=C[C@H]1c1c(O)cc(C(C)(C)CCCCCC)cc1O [Compound 31.2, 2-[(1R,6R)-3-(Acetoxymethyl)-6-(1-methylethenyl)-2-cyclohexen-1-yl]-5-(1,1-dimethylheptyl)resorcinol]	–	375	221
C=C(C)[C@@H]1CCC(COC(C)=O)=C[C@H]1c1c(O)cc(C(C)(C)CCCCCCBr)cc1O [Compound 31.13, 2-[(1R,6R)-3-(Acetoxymethyl)-6-(1-methylethenyl)-2-cyclohexen-1-yl]-5-(8-bromo-2-methyloct-2-yl)resorcinol]	–	171	205
C=C(C)[C@H]1CCC(COC(C)=O)=C[C@@H]1c1c(O)cc(C2(CCCCCC#N)CCC2)cc1O [Compound 33, 2-[(1S,6S)-3-(Acetoxymethyl)-6-(1-methylethenyl)-2-cyclohexen-1-yl]-5-[(5-cyanopentyl)cyclobutyl)resorcinol]	–	15	65
C=C(C)[C@H]1CCC(CO)=C[C@@H]1c1c(O)cc(C2(CCCCCN=[N+]=[N-])CCC2)cc1O [Compound 37, 2-[(1S,6S)-3-(Hydroxymethyl)-6-(1-methylethenyl)-2-cyclohexen-1-yl]-5-[(5-azidopentyl)cyclobutyl)resorcinol]	–	7.2	22
CCCCCc1cc(O)c([C@H]2C=C(C)[C@H]3C[C@@H]2C3(C)C)c(O)c1 [Compound 40.1, (+)-2-[(1R,4S,5S)-2,6,6-trimethylbicyclo[3.1.1]hept-2-en-4-yl]-5-pentyl-resorcinol, reference compound]	–	47	671
CCCCCCC1(c2cc(O)c([C@H]3C=C(C)[C@H]4C[C@@H]3C4(C)C)c(O)c2)CCCC1 [Compound 40.4, (+)-2-[(1R,4S,5S)-2,6,6-trimethylbicylco[3.1.1]hept-2-en-4-yl]-5-(1-hexyl-1-cyclopentyl)resorcinol]	–	17	23
CCCC/C=C\C1(c2cc(O)c([C@H]3C=C(C)[C@H]4C[C@@H]3C4(C)C)c(O)c2)CCCC1 [Compound 40.5, (+)-2-[(1R,4S,5S)-2,6,6-trimethylbicylco[3.1.1]hept-2-en-4-yl]-5-[1-(1,2-cis-hexen-1-yl)-cyclopent-1-yl]resorcinol]	–	6.6	13.4
CC1=C[C@H](c2c(O)cc(C3(CCCCCBr)CCCC3)cc2O)[C@@H]2C[C@H]1C2(C)C [Compound 40.7, (+)-2-[(1R,4S,5S)-2,6,6-trimethylbicylco[3.1.1]hept-2-en-4-yl]-5-[(5-bromopentyl)cyclopentyl]resorcinol]	–	4.7	6.4
CC1=C[C@H](c2c(O)cc(C3(CCCCCBr)CCC3)cc2O)[C@@H]2C[C@H]1C2(C)C [Compound 40.8, (+)-2-[(1R,4S,5S)-2,6,6-trimethylbicylco[3.1.1]hept-2-en-4-yl]-5-[(5-bromopentyl)cyclobutyl]resorcinol]	–	2.1	1
CC1=C[C@H](c2c(O)cc(C3(CCCCBr)CCC3)cc2O)[C@@H]2C[C@H]1C2(C)C [Compound 40.15, (+)-2-[(1R,4S,5S)-2,6,6-trimethylbicylco[3.1.1]hept-2-en-4-yl]-5-[(5-bromobutyl)cyclobutyl]resorcinol]	–	1.9	11
CCCCCc1cc(O)c([C@@H]2C=C(C)[C@@H]3C[C@H]2C3(C)C)c(O)c1 [Compound 43.1, (−)-2-[(1S,4R,5R)-2,6,6-trimethylbicyclo[3.1.1]hept-2-en-4-yl]-5-pentyl-resorcinol, reference compound]	–	565	837
CCCC/C=C\C1(c2cc(O)c([C@@H]3C=C(C)[C@@H]4C[C@H]3C4(C)C)c(O)c2)CCCC1 [Compound 43.5, (−)-2-[(1S,4R,5R)-2,6,6-trimethylbicyclo[3.1.1]hept-2-en-4-yl]-5-[1-(1,2-cis-hexen-1-yl)-cycolpentyl-1-yl]resorcinol]	–	29	45
